Test results: patent publication US20190110476A1, “NOVEL ISOTHIAZOLAMIDES, PROCESSES FOR THEIR PREPARATION AND THEIR USE AS FUNGICIDES” (priority 2014, published 2019)
Marks after values point to notes of the source that are not given here.

Assay: Measurement of LogP values by HPLC on reversed phase columns (EEC directive 79/831 Annex V.A8)
Format: physicochemical
How it was run: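 Following EEC directive 79/831 Annex V.A8, lipophilicity was derived from retention on reversed-phase HPLC columns. Separate values are given per diastereoisomer, and UV lambda-max (200–400 nm) was read at the peak signals.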

Compound	LogP	LogP [a]	LogP [b]
CC(c1cc(Cl)cc(Cl)c1)N(C(=O)c1cc(N)ns1)C1CC1 (stereo not shown) [I-979]	3.19[a]	–	–
Nc1nsc(C(=O)NCC2CCCCC2Cl)c1I (stereo not shown) [I-1293]	2.50[a]	–	–
Nc1nsc(C(=O)NC2CC23CCCCC3)c1Cl (stereo not shown) [I-1549]	2.54[a]	–	–
CON(Cc1ccc(F)cc1F)C(=O)c1snc(N)c1Cl [I-542]	2.50[a]	–	–
CC1CCCC(C)(C)C1CN(C(=O)c1snc(N)c1Cl)C1CC1 (stereo not shown) [I-081]	4.08[a]	–	–
COc1c(N)nsc1C(=O)NCc1ccc(Cl)cc1 [I-737]	1.98[a]	–	–
O=C(NCC1CCCCC1)c1cc(N(Cc2ccccc2)Cc2ccccc2)ns1 [I-540]	5.22[a]	–	–
COc1c(N)nsc1C(=O)NCC1CCCCCC1 [I-735]	2.50[a]	–	–
COc1ccc(CNc2nsc(C(=O)NCc3cnccn3)c2Cl)cc1 [I-1231]	2.26[a]	–	–
Cc1ccc(F)c(CN(C(=O)c2snc(N)c2Cl)C2CC2)c1 [I-363]	2.80[a]	–	–
O=C(NCC1CCCCO1)c1snc(Cl)c1Cl (stereo not shown) [E-II-010]	–	2.87^[a]	–
O=C(NCCC1CCCCC1)c1snc(N=C(c2ccccc2)c2ccccc2)c1Cl [II-083]	–	5.92^[a]	–
COc1ccc(CNc2nsc(C(=O)NC3CCCCC3(C)C)c2Cl)cc1 (stereo not shown) [I-075]	4.64[a]	–	–
COc1ccc(CNc2nsc(C(=O)NCC3CCCC(C(F)(F)F)C3)c2Cl)cc1 (stereo not shown) [I-106]	4.33[a]	–	–
Nc1nsc(C(=O)NCC2CCCCC2C(F)(F)F)c1Cl (stereo not shown) [I-1554]	2.51[a]	–	–
COc1ccc(CNc2nsc(C(=O)NC3CCCc4ccncc43)c2Cl)cc1 (stereo not shown) [I-1310]	1.67[a]	–	–
O=C(NC(CCc1ccccc1)C1CCC1)c1snc(Cl)c1Cl (stereo not shown) [E-II-029]	–	5.04	4.91
COC1(CNC(=O)c2snc(N)c2Cl)CCC(C)CC1 (stereo not shown) [I-837]	2.58[a]	–	–
CCC(c1ccccc1)N(C(=O)c1snc(N)c1Cl)C1CC1 (stereo not shown) [I-888]	3.11[a]	–	–
Nc1nsc(C(=O)NCC2CCC(O)C2)c1Cl (stereo not shown) [I-658]	0.72[a]	–	–
CCOc1c(N)nsc1C(=O)NCC1CCCC1 [I-725]	2.18[a]	–	–
Cc1cc(CNC(=O)c2snc(N)c2Cl)ccc1F [I-349]	2.28[a]	–	–
COc1ccc(CNc2nsc(C(=O)N(Cc3cc(C)ccc3F)C3CC3)c2Cl)cc1 [I-986]	4.46[a]	–	–
O=C(Nc1nsc(C(=O)NCC2CCCCC2)c1Cl)c1ccccc1 [I-168]	3.19[a]	–	–

Compound	LogP	LogP [a]	LogP [b]
Nc1nsc(C(=O)NC2CCCC3CCCCC32)c1Cl (stereo not shown) [I-808]	3.33[a]	–	–
O=C(NCc1ccc(Cl)cc1)c1snc(NC(=O)C(F)F)c1Cl [I-574]	2.51[a]	–	–
Nc1cc(C(=O)N(Cc2ccccc2)C2CC2)sn1 [I-978]	2.02[a]	–	–
Cc1c(N)nsc1C(=O)NCC1CCCC1O (single isomer, unassigned) [I-707]	0.82[a]	–	–
COc1ccc(CNc2nsc(C(=O)NCc3ccc(F)cc3C(F)(F)F)c2Cl)cc1 [I-220]	4.18[a]	–	–
COc1ccc(CNc2nsc(C(=O)O)c2Cl)cc1 [E-VIII-002]	–	2.21^[a]	–
COc1ccc(CNc2nsc(C(=O)Nc3ccc(Cl)cc3Cl)c2Cl)cc1 [I-867]	5.22[a]	–	–
COc1ccc(CNc2nsc(C(=O)N(Cc3ccc(Cl)cc3Cl)C3CC3)c2Cl)cc1 [I-930]	5.08[a]	–	–
COc1ccc(CNc2nsc(C(=O)N(Cc3ccc(Cl)cc3Cl)C3CC3(C)C)c2Cl)cc1 (stereo not shown) [I-945]	5.87[a]	–	–
COc1ccc(CNc2nsc(C(=O)NCc3cnn(CC(C)C)c3C)c2Cl)cc1 [I-1262]	3.21[a]	–	–
COc1ccc(CNc2nsc(C(=O)OC(C)C)c2NCc2ccc(OC)cc2)cc1 [E-VII-063]	–	4.56	4.51
COc1ccc(CNc2nsc(C(=O)NC3CCCc4cc(C(C)(C)C)ccc43)c2Cl)cc1 (stereo not shown) [I-1311]	5.46[a]	–	–
Cc1ccc(C(C)C)c(CNC(=O)c2snc(N)c2Cl)c1 [I-415]	3.15[a]	–	–
Nc1cc(C(=O)N(Cc2cc(F)ccc2F)C2CC2)sn1 [I-997]	2.18[a]	–	–
Nc1nsc(C(=O)NCc2ccc(Cl)cc2F)c1Cl [I-181]	2.40[a]	–	–
Nc1nsc(C(=O)NCC2CCCCC2F)c1Cl (stereo not shown) [I-1306]	1.97[a]	–	–
COc1ccc(CNC(=O)c2snc(NCc3ccc(OC)cc3)c2Cl)cc1 [I-102]	3.46[a]	–	–
C[C@H](NC(=O)c1snc(Cl)c1Cl)C1CCCCC1 [E-II-002]	–	4.56^[a]	–
COc1ccc(CNc2nsc(C(=O)N[C@@H]3CCCC[C@@H]3C)c2Cl)cc1 (relative stereo) [I-1550]	4.18[a]	–	–
Nc1nsc(C(=O)N(Cc2cc(Cl)cc(C(F)(F)F)c2)C2CC2)c1Cl [I-216]	3.53[a]	–	–
Nc1nsc(C(=O)NCC2CCCO2)c1Cl (stereo not shown) [I-013]	1.02[a]	–	–
COc1ccc(CNC(=O)c2snc(N)c2Cl)cn1 [I-114]	1.23[a]	–	–
O=C(NC1CCCC2CCCCC21)c1snc(N=CN2CCCC2)c1Cl (stereo not shown) [II-036]	–	3.52^[a]	–
